Measured values from patent publication US7977120B2, “Fluorescent sensors for cellular amines” (The Curators of the University of Missouri, priority 2005, dated 2011).
Entries after “also recorded” stand apart in the source; their conditions may differ.

Assays:
[1] = Fluorescence titration of quinolone sensors with butylamine; assay type: binding; conditions: Table 3; for Ka, Butylamine: 1:1 methanol-buffer, error ±20%, duplicate titrations; for Isat/I0, Butylamine: maximum change in fluorescence from theoretical fit
[2] = Fluorescence titration of quinolone sensors with diaminobutane; assay type: binding; conditions: Table 3; for Ka, Diaminobutane: 1:1 methanol-buffer
Excerpt: (§1) The present invention further discloses that the Quinolone-Dimer Sensors III can also provide detection for diamine analytes. The certain exemplary dimer sensors IIIa-g have been probed spectroscopically by UV-vis and fluorescence titration experiments. […] Moreover, by variation of the linker portion of the sensor III, useful selectivities for different length diamino-analytes have been achieved. First, the absorption spectra show trends similar to those observed with the coumarin sensors in which a large red shift in absorption maximum is observed upon addition of diamines to the sensors. […] As shown in FIG. 11(a), when sensor IIIg is titrated with diaminopropane, a 28 nm shift in absorbance is observed consistent with a shift from aldehyde to iminium ion forms. The red shift in absorption has been attributed to the hydrogen bond between the formed iminium ion and the carbonyl group of the chromophore. In fluorescence mode, by exciting the chromophore at 495 nm, a large increase in fluorescence was observed upon titration with the diamine (FIG. 11(b)).

[3] = Fluorescence titration of quinolone sensors with diaminopentane; assay type: binding; conditions: Table 3; for Ka, Diaminopentane: 1:1 methanol-buffer
Excerpt: as §1

[4] = UV-vis and fluorescence titration of quinolone sensors with diaminopropane; assay type: binding; conditions: for Isat/I0, Diaminopropane / Ka, Diaminopropane: Table 3; for Ka, Diaminopropane: 1:1 methanol-buffer
Excerpt: (§2) The present invention further discloses that the Quinolone-Dimer Sensors III can also provide detection for diamine analytes. The certain exemplary dimer sensors IIIa-g have been probed spectroscopically by UV-vis and fluorescence titration experiments. […] Moreover, by variation of the linker portion of the sensor III, useful selectivities for different length diamino-analytes have been achieved.
(§3) First, the absorption spectra show trends similar to those observed with the coumarin sensors in which a large red shift in absorption maximum is observed upon addition of diamines to the sensors. […] As shown in FIG. 11(a), when sensor IIIg is titrated with diaminopropane, a 28 nm shift in absorbance is observed consistent with a shift from aldehyde to iminium ion forms. The red shift in absorption has been attributed to the hydrogen bond between the formed iminium ion and the carbonyl group of the chromophore. In fluorescence mode, by exciting the chromophore at 495 nm, a large increase in fluorescence was observed upon titration with the diamine (FIG. 11(b)). The fluorescence increase is fitted to a one-site binding isotherm which gave a binding constant of 6700 M^−1 with a maximum fluorescence increase at saturation (Isat/I0) of 6.6-fold.
(§4) Generally, the dimeric sensors were not as soluble as the monomeric derivatives, so binding studies were performed in 1:1 methanol:buffer (10 mM HEPES, pH=7.4). Water solubilizing groups, such as polyethylene groups, can be provided on the quinolone core in a straightforward synthetic manner. Binding constants and maximum fluorescence changes (Isat/I0) are provided in Table 4 for a few representative guests.

[5] = Fluorescence titration of quinolone sensors with ornithine; assay type: binding; conditions: Table 3; for Ka, Ornithine: 1:1 methanol-buffer
Excerpt: as §1

[6] = Relative affinity of dimer sensors across amine guests; assay type: binding; conditions: for guest selectivity (in words): comparison of guests, Tables 3 and 4
Excerpt: The certain exemplary dimer sensors IIIa-g have been probed spectroscopically by UV-vis and fluorescence titration experiments.
Water solubilizing groups, such as polyethylene groups, can be provided on the quinolone core in a straightforward synthetic manner. Binding constants and maximum fluorescence changes (Isat/I0) are provided in Table 4 for a few representative guests.

[7] = Fluorescence titration of quinolone sensors with lysine; assay type: binding; conditions: Table 3; for Ka, Lysine: 1:1 methanol-buffer
Excerpt: as §2, §3, §4

[8] = tested on: bovine adrenal chromaffin cells; test: Staining chromaffin cells with the simple monomer IIa (confocal microscopy); assay type: cell-based; conditions: for staining of cells seen by confocal microscopy: 0.5 μM, 15 minutes, 37 C, excitation 488 nm
Experimental: The present invention further provides that the Quinolone-Monomer Sensors II can sense catecholamines and map their movements in a live cell. The initial proof of concept has been carried out by staining chromaffin cells with the simple monomer IIa. Specifically, several sets of chromaffin cells (which contain norepinephrine) were freshly prepared on coverslips and various concentrations of IIa in media were added.
A stock solution of 50 mM in DMSO was diluted in cell culture media to yield a final concentration of 0.5 uM. Cells were incubated in this solution at 37 C for 15 minutes and then the cells were washed with cell culture media without dye and observed using a confocal microscope at room temperature. The excitation wavelength was 488 nm.
Several sets of chromaffin cells (which contain norepinephrine) were freshly prepared on coverslips and various concentrations of 112 in media were added. […] The nuclei are clearly visible as dark regions. […] Given that the sensor should bind equally well to all amines, it is likely that that the sensor is actively accumulating in the vesicles.

[9] = tested on: epinephrine-enriched chromaffin cells; test: Staining epinephrine-enriched chromaffin cells with Sensor IIb; assay type: cell-based; conditions: identical conditions as norepinephrine cells
Excerpt: (§5) The adrenal medulla contains two types of chromaffin cells; those that primarily contain norepinephrine within vesicles and those that primarily contain epinephrine. The two types of cells can be separated upon high-speed centrifugation in a Percoll density gradient. Following centrifugation, the less-dense norepinephrine enriched cells can be collected from the top of the gradient, whereas the denser epinephrine-enriched cells settle to the bottom.
(§6) Following centrifugation of adrenal medullary cells in a Percoll density gradient, the less-dense norepinephrine enriched cells were collected from the top of the gradient, whereas the denser epinephrine-enriched cells were collected from the bottom of the gradient. Both collections of cells were incubated for 15 minutes at 37 C in 0.25 μM IIb dissolved in cell culture media. The cells were then washed in dye-free media and observed using a confocal microscope at room temperature.
(§7) Because it is possible to separate chromaffin cells into populations which contain epinephrine and norepinephrine, these cells were used to test sensor 76.

[10] = tested on: norepinephrine-enriched chromaffin cells; test: Staining norepinephrine-enriched chromaffin cells with Sensor IIb; assay type: cell-based; conditions: 0.25 μM, 15 minutes, 37 C, confocal microscopy; compared with epinephrine-enriched cells
Excerpt: as §5, §6, §7

[11] = UV-vis absorption / fluorescence titration of sensor Ia with dopamine; assay type: binding; conditions: excited at 484 nm, FIG. 8
Excerpt: First, the sensors I produce a large chromophoric response when reacting with primary amines under physiological conditions. One exemplary coumarin-based sensor, 2-(((5-(7-(diethylamino)-3-formyl-2-oxo-2H-chromen-4-yl)pentyl)(methyl)amino)methyl)phenylboronic acid, sensor Ia, has been examined spectrophotometrically by titration with dopamine under neutral aqueous conditions in which a reducing agent is included to suppress oxidation of the air-sensitive catechol group.
The titration conditions are 10 μM sensor Ia with 100 mM Na2S2O3, 50 mM HEPES, 20 mM NaCl, pH=7.0, and at 37° C. […] Therefore, the inventive coumarin-based sensors I are selective for primary amines. See also, Org. Lett. 2004, 6(21), 3727-3730, which is incorporated herein by reference.
Table 2 also lists the fluorescence response of the sensor Ia as Isat/I0 (the maximum fluorescence change at saturation) for three different excitation wavelengths: 446 nm, 484 nm, and 495 nm. By exciting sensor Ia at the aldehyde absorption maximum (446 nm), a decrease in fluorescence has been observed for all analytes because the sensor shifted from the aldehyde to the iminium ion form. At higher wavelengths of excitation, simple amines give the typical large increase in fluorescence since the iminium ion preferentially absorbs at these wavelengths. […] The fluorescence quenching effect is found to be directly related to the catechol group. […]

CN(C)c1ccc2c(Sc3cccc(Sc4c(C=O)c(=O)n(Cc5ccccc5)c5cc(N(C)C)ccc45)c3)c(C=O)c(=O)n(Cc3ccccc3)c2c1 [Sensor IIId, meta-Benzenedithiol Dimer]
Ka, Butylamine [1]: 72 M⁻¹
Isat/I0, Butylamine [1]: 8.8
Isat/I0, Diaminobutane [2]: 15
Ka, Diaminobutane [2]: 1600 M⁻¹
Isat/I0, Diaminopentane [3]: 15
Ka, Diaminopentane [3]: 1200 M⁻¹
Isat/I0, Diaminopropane [4]: 16
Ka, Diaminopropane ([4]; excitation 495 nm): 3400 M⁻¹
Isat/I0, Ornithine [5]: 13
Ka, Ornithine [5]: 3300 M⁻¹
guest selectivity (in words) [6]: preference for ornithine
Isat/I0, Lysine [7]: 4.7
Ka, Lysine [7]: 2100 M⁻¹

CN(C)c1ccc2c(Sc3ccccc3Sc3c(C=O)c(=O)n(Cc4ccccc4)c4cc(N(C)C)ccc34)c(C=O)c(=O)n(Cc3ccccc3)c2c1 [Sensor IIIe]
Ka, Butylamine [1]: 30 M⁻¹
Isat/I0, Butylamine [1]: 10
Isat/I0, Diaminobutane [2]: 10
Ka, Diaminobutane [2]: 160 M⁻¹
Isat/I0, Diaminopentane [3]: 4.3
Ka, Diaminopentane [3]: 350 M⁻¹
Isat/I0, Diaminopropane [4]: 8.5
Ka, Diaminopropane ([4]; excitation 495 nm): 350 M⁻¹
Isat/I0, Ornithine [5]: 7.3
Ka, Ornithine [5]: 680 M⁻¹
Isat/I0, Lysine [7]: 10
Ka, Lysine [7]: 800 M⁻¹

CN(C)c1ccc2c(SCCCSc3c(C=O)c(=O)n(Cc4ccccc4)c4cc(N(C)C)ccc34)c(C=O)c(=O)n(Cc3ccccc3)c2c1 [Sensor IIIf]
Ka, Butylamine [1]: 31 M⁻¹
Isat/I0, Butylamine [1]: 26
Isat/I0, Diaminobutane [2]: 24
Ka, Diaminobutane [2]: 690 M⁻¹
Isat/I0, Diaminopentane [3]: 24
Ka, Diaminopentane [3]: 270 M⁻¹
Isat/I0, Diaminopropane [4]: 15
Ka, Diaminopropane ([4]; excitation 495 nm): 2100 M⁻¹
Isat/I0, Ornithine [5]: 22
Ka, Ornithine [5]: 550 M⁻¹
guest selectivity (in words) [6]: the preferred guest in both cases is lysine
Isat/I0, Lysine [7]: 24
Ka, Lysine [7]: 1460 M⁻¹

CN(C)c1ccc2c(SCCCCCSc3c(C=O)c(=O)n(Cc4ccccc4)c4cc(N(C)C)ccc34)c(C=O)c(=O)n(Cc3ccccc3)c2c1 [Sensor IIIg]
Ka, Butylamine [1]: 43 M⁻¹
Isat/I0, Butylamine [1]: 38
Isat/I0, Diaminobutane [2]: 27
Ka, Diaminobutane [2]: 1477 M⁻¹
Isat/I0, Diaminopentane [3]: 18
Ka, Diaminopentane [3]: 2200 M⁻¹
Isat/I0, Diaminopropane [4]: 6.6
Ka, Diaminopropane ([4]; excitation 495 nm): 6700 M⁻¹
maximum fluorescence increase at saturation (Isat/I0) ([4]; excitation 495 nm, one-site binding isotherm, FIG. 11(b)): 6.6 fold
Isat/I0, Ornithine [5]: 20
Ka, Ornithine [5]: 2400 M⁻¹
guest selectivity (in words) [6]: the preferred guest in both cases is lysine
extent of the difference, diamines bind better than butyl amine ([6]; ratio of binding constants, Table 3): 160 fold
Isat/I0, Lysine [7]: 27
Ka, Lysine [7]: 2756 M⁻¹

CCSc1c(C=O)c(=O)n(Cc2ccccc2)c2cc(N(C)C)ccc12 [Sensor IIa, 1-benzyl-7-(dimethylamino)-4-(ethylthio)-2-oxo-1,2-dihydroquinoline-3-carbaldehyde]
Ka, Butylamine [1]: 76 M⁻¹
Isat/I0, Butylamine [1]: 32
membrane / cell permeability [8]: membrane permeable
staining of cells seen by confocal microscopy [8]: selectively stained; also recorded: punctate staining
staining of cells seen by confocal microscopy ([8]; listed as 112): selectively stained
optimal sensor concentration ([8]; 15 minutes of equilibration time): 0.5 µM
Isat/I0, Lysine [7]: 41
Ka, Lysine [7]: 129 M⁻¹

CN(CCCSc1c(C=O)c(=O)n(Cc2ccccc2)c2cc(N(C)C)ccc12)Cc1ccccc1B(O)O [Sensor IIb]
staining of epinephrine-containing cells [9]: did not stain well
staining of norepinephrine-enriched cells [10]: stained brightly

CCN(CC)c1ccc2c(CCCCCN(C)Cc3ccccc3B(O)O)c(C=O)c(=O)oc2c1 [Sensor Ia, 2-(((5-(7-(diethylamino)-3-formyl-2-oxo-2H-chromen-4-yl)pentyl)(methyl)amino)methyl)phenylboronic acid]
fluorescence on binding dopamine [11]: quenched upon binding dopamine
